These results are taken from US20090123940A1, “MOLECULES INVOLVED IN SYNAPTOGENESIS AND USES THEREFOR” (THE JOHNS HOPKINS UNIVERSITY, priority 2007, published 2009).

The test system of assay [1] is NPR-myc and GluR2-HA in COS-7 cells. As to the kind of experiment: Live staining of NPR clusters in transfected COS-7 cells after PMA. Format: cell-based. On the procedure:
Immunocytochemical staining. Immunocytochemical staining of heterologous cells was performed as described (Xu et al., supra). For PMA-stimulation experiments, PMA (Sigma Cat #: P8139) at (150 nM) was added 90 minutes prior to live staining. Images were viewed and captured using Nikon E800 epifluorescence microscope fitted with a Princeton Instruments CCD camera. For live staining, neurons cultured on coverslips were incubated at 10° C. with the appropriate primary antibodies at the indicated dilutions in conditioned culture medium for 20 min. They were then washed with PBS and fixed with 4% paraformaldehyde/4% sucrose in PBS for 20 min at room temperature. Cells were permeablized with 0.2% Triton X-100 in PBS for 5 min and then blocked in 10% normal goat serum in PBS for 1 hr at room temperature. […] For quantification of the punctate structures (e.g. GluR1), images were thresholded by grey value to differentiate single puncta. Segments of dendrites were selected and number of puncta was calculated per […] of length dendrite. Figures show ratios of calculated mean densities (number of puncta per unit length) from treated/control. Error bars were calculated using SEM and Gaussian error propagation. n=number of measured dendrites. Significance was determined by paired Student's T-test. […]

For assay [2], the system named is NPR cleavage at Site A (TACE). Nature of the assay: NPR cleavage assay in transfected HEK293T cells. It is filed as cell-based, rat. Conditions: PMA 150 nM, cells transfected with NPR. On the procedure: Cleavage Assay HEK293T cells were plated in OptiMEM (Invitrogen, Carlsbad, Calif.) containing 5% FBS onto 6-well dishes at a density of 4×10^5 cells/mL (2 mL/well) 1 day before transfection. Cells were transfected with NPR in pRK5 using LipofectAMINE 2000 (Invitrogen, Carlsbad Calif.). After 24 hr the medium was replaced with serum-free OptiMEM. […] Samples from each well were obtained at specific time points, immediately placed on ice, centrifuged at 15,000 g to remove cell debris, and then treated with 2% β-mercaptoethanol containing loading buffer. At the end of the time course, the cells were lysed with RIPA buffer, centrifuged to remove cell debris, and treated with 2% β-mercaptoethanol in loading buffer. Samples (20 μL of medium or lysate diluted to 1/5) were run on SDS-PAGE gels and analyzed by Western blotting.

The test system of assay [3] is Narp association with AMPA receptor subunits. As to the kind of experiment: Co-immunoprecipitation of Narp with AMPA receptor subunits in HEK-293 cells. Format: cell-based. Conditions: 1 mM tunicamycin. An excerpt:
Co-immunoprecipitation experiments were used to examine whether Narp is physically associated with AMPA receptors in HEK-293 cells.

For the compound `CCCCCCCCCCCCCC(=O)O[C@@H]1[C@@H](C)[C@@]2(O)[C@@H](C=C(CO)C[C@]3(O)C(=O)C(C)=C[C@@H]23)[C@@H]2C(C)(C)[C@]12OC(C)=O` [PMA, phorbol myristate acetate], the “NPR distribution on COS-7 cells expressing NPR-myc” value in assay [1] (PMA 150 nM, 90 min) was “large clusters of NPR were detected”. Besides, the “clustering of NPR and GluR2 in COS-7 cells co-transfected with NPR-myc and GluR2-HA” value in assay [1] (PMA treated) is “exhibited co-clusters of NPR and GluR2”. Further, the “accumulation of LFC-NPR in the medium” value in assay [2] is “increased the accumulation of LFC-NPR in the medium”.

As for tunicamycin, the “association between Narp and AMPA receptor subunits” value in assay [3] is recorded as “no effect”.
